Values of other authors as cited in patent US20070077296A1, “Pharmaceutical Preparation containing Meloxicam” (priority 2005, published 2007).

solubility in water: hardly dissolve in water
Structure (SMILES): Cc1cnc(NC(=O)C2=C(O)c3ccccc3S(=O)(=O)N2C)s1 [meloxicam, 4-hydroxy-2-methyl-N-(5-methyl-2-thiazolyl)-2H-1,2-benzothiazine-3-carboxamide-1,1-dioxide]
